Patent publication US9833497B2, “Human originated EGF domain proteins and use of the same” (CHENGDU SOURCEBIO LIMITED-LIABILITY COMPANY, priority 2013, dated 2017)

Columns and labels:
Format in all cases: cell-based
Proteus mirabilis = assay: MIC against Gram-negative bacteria: Proteus mirabilis; conditions: for MIC against P. mirabilis: Proteus mirabilis
In short: (§1)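 Two-fold serial dilutions of each purified human EGF domain protein, three replicate wells per level, were combined with bacteria at a final 5×10^5 CFU/mL in LB. Cultures were shaken at 175 rpm, 37° C. The MIC was taken as the minimum concentration preventing growth.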

Pseudomonas aeruginosa = assay: MIC against Gram-negative bacteria: Pseudomonas aeruginosa; conditions: for MIC against P. aeruginosa: Pseudomonas aeruginosa
In short: as §1

Aeromonas hydrophila = assay: MIC against Gram-negative bacteria: Aeromonas hydrophila; conditions: for MIC against A. hydrophila: Aeromonas hydrophila
In short: as §1

Klebsiella pneumonia = assay: MIC against Gram-negative bacteria: Klebsiella pneumonia; conditions: for MIC against K. pneumonia: Klebsiella pneumonia
In short: as §1

E. coli DH5α = assay: Antibacterial activity: MIC and growth curve against E. coli DH5α in 96-well plate; conditions: minimal inhibitory concentration against E. coli DH5α; 96-well plate, 5×10^5 CFU/mL, 37° C., judged after 8 h
In short: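 Log-phase DH5α (OD600 about 0.5, 37° C, 185 rpm in LB) was pelleted, resuspended in fresh LB and seeded at 5×10^5 CFU/mL with recombinant protein at 50, 25 and 12.5 μg/mL (two-fold series), in triplicate. Plates were shaken at 175 rpm, 37° C, and OD600 was read every 30 min. MIC was the lowest concentration with no growth.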

Enterobacter cloacae = assay: MIC against Gram-negative bacteria: Enterobacter cloacae; conditions: for MIC against E. cloacae: Enterobacter cloacae
In short: as §1

Moraxella catarrhalis = assay: MIC against Gram-negative bacteria: Moraxella catarrhalis; conditions: for MIC against M. catarrhalis: Moraxella catarrhalis
In short: as §1

Citrobacter diversus = assay: MIC against Gram-negative bacteria: Citrobacter diversus; conditions: for MIC against C. diversus: Citrobacter diversus
In short: as §1

Proteus vulgaris = assay: MIC against Gram-negative bacteria: Proteus vulgaris; conditions: for MIC against P. vulgaris: Proteus vulgaris
In short: as §1

Serratia marcescens = assay: MIC against Gram-negative bacteria: Serratia marcescens; conditions: for MIC against S. marcescens: Serratia marcescens
In short: as §1

E. coli BL21 = assay: MIC against Gram-negative bacteria: E. coli BL21
In short: as §1

[1] = 96-well plate, 5×10^5 CFU/mL, 37° C., 10 h
[2] = 5×10^5 CFU/mL, 10 h cultivation at 37° C.
[3] = 10 h cultivation at 37° C., 5×10^5 CFU/mL, two-fold serial dilution

PRT601 (CDCDIGGAYSNVCSPKNGQCECRPHVTGRSCSEPAPGYFFAPLNFYL; listed as Homo sapiens)
12.5 µg/mL: MIC P. aeruginosa (Pseudomonas aeruginosa; [1]) | MIC C. diversus (Citrobacter diversus; [1]) | MIC S. marcescens (Serratia marcescens; [1])
50 µg/mL: MIC (E. coli DH5α) | MIC E. cloacae (Enterobacter cloacae; [1]) | MIC M. catarrhalis (Moraxella catarrhalis; [1]) | MIC P. vulgaris (Proteus vulgaris; [1])
25 µg/mL: MIC A. hydrophila (Aeromonas hydrophila; [1]) | MIC K. pneumonia (Klebsiella pneumonia; [1]) | MIC E. coli BL21 (E. coli BL21; [1])
100 µg/mL: MIC P. mirabilis (Proteus mirabilis; [1])

PRT1218 (DINECEREECENGGSCVNVFGSFLCNCTPGYVGQYCG; listed as Homo sapiens)
25 µg/mL: MIC against P. aeruginosa (Pseudomonas aeruginosa; [1]) | MIC against C. diversus (Citrobacter diversus; [1]) | MIC against S. marcescens (Serratia marcescens; [1]) | MIC against E. coli BL21 (E. coli BL21; E. coli BL21, 96-well plate, 5×10^5 CFU/mL, 37° C., 10 h)
12.5 µg/mL: MIC against P. mirabilis (Proteus mirabilis; [1]) | MIC against A. hydrophila (Aeromonas hydrophila; [1]) | MIC against K. pneumonia (Klebsiella pneumonia; [1]) | MIC (E. coli DH5α) | MIC against E. cloacae (Enterobacter cloacae; [1]) | MIC against M. catarrhalis (Moraxella catarrhalis; [1]) | MIC against P. vulgaris (Proteus vulgaris; [1])

PRT1001 (EMTACHSGPCLNGGSCNPSPGGYYCTCPPSHTGPQCQ; listed as Homo sapiens)
12.5 µg/mL: MIC (Proteus mirabilis; P. mirabilis, 10 h cultivation at 37° C.) | MIC (Pseudomonas aeruginosa; P. aeruginosa, 10 h cultivation at 37° C.) | MIC (Aeromonas hydrophila; A. hydrophila, 10 h cultivation at 37° C.) | MIC (E. coli DH5α)
50 µg/mL: MIC (Klebsiella pneumonia; K. pneumonia, 10 h cultivation at 37° C.) | MIC (Citrobacter diversus; C. diversus, 10 h cultivation at 37° C.) | MIC (Serratia marcescens; S. marcescens, 10 h cultivation at 37° C.) | MIC (E. coli BL21; E. coli BL21, 10 h cultivation at 37° C.)
25 µg/mL: MIC (Enterobacter cloacae; E. cloacae, 10 h cultivation at 37° C.) | MIC (Moraxella catarrhalis; M. catarrhalis, 10 h cultivation at 37° C.) | MIC (Proteus vulgaris; P. vulgaris, 10 h cultivation at 37° C.)

PRT1475 (DINECKDPSNINGGCSQICDNTPGSYHCSCKNGFVMLSNKKDCK; listed as Homo sapiens)
25 µg/mL: MIC against P. mirabilis (Proteus mirabilis; [2]) | MIC (E. coli DH5α) | MIC against E. cloacae (Enterobacter cloacae; [2]) | MIC against C. diversus (Citrobacter diversus; [2])
12.5 µg/mL: MIC against P. aeruginosa (Pseudomonas aeruginosa; [2]) | MIC against A. hydrophila (Aeromonas hydrophila; [2]) | MIC against K. pneumonia (Klebsiella pneumonia; [2]) | MIC against M. catarrhalis (Moraxella catarrhalis; [2]) | MIC against P. vulgaris (Proteus vulgaris; [2]) | MIC against S. marcescens (Serratia marcescens; [2]) | MIC against E. coli BL21 (E. coli BL21; E. coli BL21, 5×10^5 CFU/mL, 10 h cultivation at 37° C.)

PRT246 (DINECTMDSHTCSHHANCFNTQGSFKCKCKQGYKGNGLRCS; listed as Homo sapiens)
12.5 µg/mL: MIC (μg/mL) P. mirabilis (Proteus mirabilis; P. mirabilis, 10 h cultivation at 37° C., 5×10^5 CFU/mL) | MIC (μg/mL) P. aeruginosa (Pseudomonas aeruginosa; P. aeruginosa, 10 h cultivation at 37° C., 5×10^5 CFU/mL) | MIC (μg/mL) A. hydrophila (Aeromonas hydrophila; A. hydrophila, 10 h cultivation at 37° C., 5×10^5 CFU/mL) | MIC (μg/mL) K. pneumonia (Klebsiella pneumonia; K. pneumonia, 10 h cultivation at 37° C., 5×10^5 CFU/mL) | MIC (E. coli DH5α) | MIC (μg/mL) E. cloacae (Enterobacter cloacae; E. cloacae, 10 h cultivation at 37° C., 5×10^5 CFU/mL) | MIC (μg/mL) C. diversus (Citrobacter diversus; C. diversus, 10 h cultivation at 37° C., 5×10^5 CFU/mL) | MIC (μg/mL) S. marcescens (Serratia marcescens; S. marcescens, 10 h cultivation at 37° C., 5×10^5 CFU/mL) | MIC (μg/mL) E. coli BL21 (E. coli BL21; E. coli BL21, 10 h cultivation at 37° C., 5×10^5 CFU/mL)
25 µg/mL: MIC (μg/mL) M. catarrhalis (Moraxella catarrhalis; M. catarrhalis, 10 h cultivation at 37° C., 5×10^5 CFU/mL) | MIC (μg/mL) P. vulgaris (Proteus vulgaris; P. vulgaris, 10 h cultivation at 37° C., 5×10^5 CFU/mL)

PRT1145 (KINDCTSIPCMNEGFCQKSAHGFTCICPRGYTGAYCE; listed as Homo sapiens)
12.5 µg/mL: MIC P. aeruginosa (Pseudomonas aeruginosa; [3]) | MIC A. hydrophila (Aeromonas hydrophila; [3]) | MIC K. pneumonia (Klebsiella pneumonia; [3]) | MIC (E. coli DH5α) | MIC E. cloacae (Enterobacter cloacae; [3]) | MIC M. catarrhalis (Moraxella catarrhalis; [3]) | MIC C. diversus (Citrobacter diversus; [3]) | MIC S. marcescens (Serratia marcescens; [3])
25 µg/mL: MIC P. vulgaris (Proteus vulgaris; [3]) | MIC E. coli BL21 (E. coli BL21; [3])
50 µg/mL: MIC P. mirabilis (Proteus mirabilis; [3])
